The source of these data is patent US10287337B2 (priority 2015, dated 2019).

The target of experiment [1] is T1, human calcitonin CGRP1 (CGRP1) membrane (Homo sapiens, UniProt O60894+Q16602).
T1 construct: purchased Perkin Elmer (Waltham, Mass.)
Format: binding. Particulars: for binding affinity on CGRP receptors (in words): comparison between peptides. The method, then: CGRP1 membrane was homogenized in the assay buffer (50 mM Tris-HCl pH 7.4, 5 mM MgCl2, 0.5% BSA, 0.05% Tween20). […] After 1 h of incubation, at room temperature, samples were filtered, using a Tomtec cell harvester, through glass fiber filters that had been presoaked in 0.05% polyethyleneimine and washed with the cold Tris buffer (50 mM Tris-HCl pH7.4). Filters were counted on a betaplate reader (Wallac).

The test system of experiment [2] is UVB radiation-induced inflammatory pain in rat cheek. Format: in vivo. The following applies: topical application 10 μM, 100 μL.
Description: Ultraviolet B (UVB) radiation causes cutaneous inflammation in humans and animals. One important clinical consequence of UVB-induced inflammation is causing hyperalgesia. Changes in thermal sensitivities in the area of primary UVB irradiation are well documented both in humans and in the animal models (Zhang et al., 2009). […] This model provides an experimental model of post radiation pain and can mimic one type of burn pain. To determine the magnitude of anti-inflammatory pain effects for a given drug transdermally delivered by way of microneedle delivery, the depilated rat's cheeks were exposed to an inflammatory dosage of Ultraviolet B radiation (Zhang et al., 2009).
With the skin of a rat's cheek was stretched, the circular (8 mm in diameter) fiberglass applicator of the UV Curing Device (Dymax Bluewave 200) was applied to the center of the rat's cheek. To produce an appropriate inflammation, a total dose of 1200 mJ/cm^2 UVB was administered to one rat cheek for 25 seconds. The same procedure was performed on the rat's contralateral cheek. Upon completion of UVB irradiation, all rats were returned to their home cages and were assessed for thermal pain between 24-48 hours later. […] The rats were lightly anesthetized with urethane (800 mg/kg, IP) and heat-induced withdrawal latencies of the cheeks (an indicator of C fiber stimulation responses) were measured. […] A sham control group (n=6) were only completely depilated and cleansed with ethanol wipes but without UVB challenge.
After removing patches, cheek withdrawal latencies induced by continuous and noxious heat were assessed at different time points from the end of the 20 minute treatment period up to 3 hours post treatment.
The patches were applied on the rat cheek for 20 minutes. After removing the patches, cheek withdrawal latencies induced by continuous and noxious heat were assessed at different time points up to 3 hours as described above.
(§1) After removing the patches, cheek withdrawal latencies induced by continuous and noxious heat were assessed at different time points up to 3 hours.
Accordingly, anti-inflammatory effects were examined 48 hours post-UVB and after the application of the patch. Twelve rats were subjected to UVB radiation (1200 mJ/cm^2). […] The patch was placed over the inflamed area for a period of 20 minutes. […] Sham control group rats (n=6) were completely depilated and cleansed with ethanol wipes but without any other treatment. The rats were returned to their home cages, and assessed for thermal pain responses 48 hours later. As usual, cheek withdrawal latencies in response to continuous and noxious heat were recorded over a 3-hour time period (hours 49-51 post-UVB).
as §1
After removing the patches, cheek withdrawal latencies induced by continuous and noxious heat were assessed at different time points from 20 minutes post administration up to 3 hours.
Because UVB-irradiation may increase skin permeability, a topical formulation, but not limited to the sample shown here, was made.

For experiment [3], the system named is spared nerve injury-induced neuropathic pain in rats. As to the kind of experiment: Spared nerve injury (SNI)-induced neuropathic pain model, thermal and mechanical pain thresholds. Format: in vivo, rat. Particulars: 50 μL. The method, then: Of the three branches of the sciatic nerve the tibial and common peroneal nerves were cut and ligated leaving the sural nerve intact. Pre-surgery baselines (BL, 100%) of the thermal and mechanical pain thresholds of the ipsilateral hindpaws were measured using the Hargreaves thermal stimulator (6.0 A with a surface temperature of 30° C.; Hargreaves et al., 1988) and von Frey hair monofilaments (up-down method, Chaplan et al., 1994). […] All drug testing was conducted with this post-SNI period.
The rat recovered from anesthesia within a few minutes and the thermal and mechanical pain thresholds were determined at 0.5, 1, 2, 3, 4, 5 and 6 hour after the treatment using the methods described above.
Using the same test protocol in a different cohort of SNI rats, novel AFA-peptide 3 (0.1, 1 and 3 μM, each 50 μL) or the vehicle (50 μL) was injected into the ipsilateral hindpaws under a brief and light anesthesia condition (with 2.5% isoflurane). The thermal and mechanical pain thresholds were determined at 0.5, 1, 2, 3, 4, 5 and 6 hour after the treatment. […]

In experiment [4] the test system is paw incision-induced postoperative pain in rats. As to the kind of experiment: Paw incision-induced postoperative pain model, mechanical pain threshold. In kind it is in vivo, rat. The text has this:
A clinically applicable incision model in rodents is a hind-paw deep incision that produces a robust mechanical and cold allodynia, and thermal hyperalgesia (Pogatzki et al., 2003; Xu and Brennan, 2010). Male rats (Sprague-Dawley, 250-260 g, Harlan) used (n=8/group) were anesthetized with 2.5% isoflurane and the skin of the dorsolateral hindpaw surface were prepped by first depilitating it (using Nair), followed by rinsing and application of povidone-iodine. Afterwards, a 5 mm longitudinal incision was made near the hairy/glabrous border though the skin and subcutaneous fascia of the left hindpaw as described by (Pogatzki et al., 2003; Xu and Brennan, 2010). After briefly elevating the underlying muscle with curved forceps the wound is closed with a single nylon (8-0) mattress stitch.
Pre-surgery (baseline) and 24 hours after the surgery, the mechanical allodynia of the incision hindpaws of the rats were assessed using von Frey monofilaments with an up/down procedure (Chaplan et al., 1994). […] Mechanical pain thresholds were measured at 0.5, 1, 2, 3, 4, 5 and 6 hours post-intradermal injection.

Experiment [5] relates to electrocutaneous stimulation-induced facial pain in rats. Description: Electrocutaneous stimulation-induced facial inflammatory pain model. In kind it is in vivo, rat. Particulars: intranasal. The method, then: In humans electrocutaneous stimulation elicited vasodilatation in the cheek (Vassend and Knardahl, 2005). […] Baseline facial thermal thresholds of rats (Sprague-Dawley, male, 260-300 g) were assessed on the rats' depilated left cheek and then each rat received 1 hour of electrocutaneous facial stimulation using WPI ISOSTIM™ A320 (World Precision Instruments, 0.4 mA intensity, 10 ms duration, Is inter-pulse interval). 24 hr after stimulation (Day 1), each rat's thermal pain threshold mediated by A-delta fiber and C fiber were separately measured using a thermal nociception lamp (variable voltage regulator model: No. SC-3M) to evoke A-delta and C nerve fiber-mediated cheek withdrawal. […] Thermal thresholds were measured once every 0.5 hour for the first 3 hours post-I.N. dosing, and then 4, 5, and 6 hour post-I.N. dosing. Voltage regulator set to 90V for A-delta fiber testing and 45V for C fiber testing. Cutoff set at 6 seconds and 20 seconds for A-delta fiber and C fiber testing, respectively.

[6] abbreviates: daily intradermal injection 1 μM, 10 consecutive days.
[7] abbreviates: intradermal injection 1 μM, 50 μL, 24 hours after incision.
Where [8] appears, read: prevention: injection 1 μM, 50 μL just prior to closing of the wound.

Read-outs that look alike come from different tables or passages of the source.

T1 sequence (O60894 27-148): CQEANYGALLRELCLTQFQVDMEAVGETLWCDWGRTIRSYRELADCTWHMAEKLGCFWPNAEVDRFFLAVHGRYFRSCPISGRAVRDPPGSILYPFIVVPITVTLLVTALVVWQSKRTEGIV
T1 sequence (Q16602 23-461): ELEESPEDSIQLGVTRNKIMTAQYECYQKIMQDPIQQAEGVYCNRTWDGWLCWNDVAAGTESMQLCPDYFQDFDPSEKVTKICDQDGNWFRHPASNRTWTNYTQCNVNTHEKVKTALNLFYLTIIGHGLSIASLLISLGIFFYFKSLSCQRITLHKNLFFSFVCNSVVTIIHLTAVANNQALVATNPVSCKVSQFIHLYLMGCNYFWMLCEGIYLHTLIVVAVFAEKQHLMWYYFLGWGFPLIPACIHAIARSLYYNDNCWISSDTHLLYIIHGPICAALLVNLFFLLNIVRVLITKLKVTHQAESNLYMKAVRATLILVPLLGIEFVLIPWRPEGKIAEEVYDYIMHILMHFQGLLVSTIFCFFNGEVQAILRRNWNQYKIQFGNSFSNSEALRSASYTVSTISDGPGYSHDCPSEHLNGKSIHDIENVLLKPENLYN

As for “H-NFVPTNVGPFAF-NH2 [AFA-peptide 3, NH2-N-F-V-P-T-N-V-G-P-F-A-F-CONH2]”, the Hill slope in experiment [1] (0.24 nM [125I]-CGRP, Mean±SD) was found to be 1.20 ± 0.02. The “binding affinity on CGRP receptors (in words)” value in experiment [1] was “higher affinities than conventional CGRP 27-37 and CGRP 8-37”. Also, the “binding affinity on CGRP receptors (in words)” value in experiment [1] (listed as Peptide-3) is on record as “most potent in binding assay”. For the same substance, the duration of action in experiment [2] is 2 h. Besides, the “C-fiber-mediated thermal pain thresholds vs vehicle (in words)” value in experiment [2] (2% propylene glycol, UVB-irradiated cheek) was “significant and substantial increase”. Besides, in experiment [3] (setting [6]), the “analgesic effect on repeated dosing (in words)” value is reported as “consistent analgesic effects” and the “tolerance on repeated dosing (in words)” value is reported as “did not cause tolerance”. For the same substance, the “thermal and mechanical pain thresholds (in words)” value in experiment [3] (local intradermal injection into SNI ipsilateral hindpaw, 0.5-6 hour after treatment, vs vehicle) is on record as “produced analgesic effects, particularly on thermal pain in a dose-related manner”. Besides, in experiment [4] (setting [7]), the duration of action entry is reported as “around 6 hours” and the “mechanical pain threshold (in words)” value was “significantly increased”. For the same substance, in experiment [4] (setting [8]), the duration of action is 24 h and the “mechanical pain thresholds vs vehicle (in words)” value is reported as “significantly increased mechanical pain thresholds”. Further, the “onset of analgesic effect post treatment” value in experiment [4] (prevention: injection just prior to closing of the wound, second timepoint assessed) worked out at 1 h. Further, in experiment [5] (1 μM), the “A-delta fiber-mediated pain withdrawal latencies vs vehicle (in words)” value is “significantly prolonged”; the “C-fiber-mediated pain withdrawal latencies vs vehicle (in words)” value is “even more substantial and significantly prolonged”. In experiment [5] (data not shown), the “thermal pain thresholds in naïve, non-facial stimulation rats (in words)” value is on record as “did not alter thermal pain thresholds”.

By Hill slope is commonly meant a measure of the steepness of the concentration-response curve.
